Reference: PMC4216214 (Journal of Medicinal Chemistry, 2014)

Legend:
rNTS2 receptor [1] = biological target: T1, rNTS2 receptor (Rattus norvegicus, UniProt Q63384); assay: Calcium mobilization assay for NTS2 receptor; assay type: cell-based; conditions: calcium mobilization relative to 5b
T1 sequence (Q63384 1-416): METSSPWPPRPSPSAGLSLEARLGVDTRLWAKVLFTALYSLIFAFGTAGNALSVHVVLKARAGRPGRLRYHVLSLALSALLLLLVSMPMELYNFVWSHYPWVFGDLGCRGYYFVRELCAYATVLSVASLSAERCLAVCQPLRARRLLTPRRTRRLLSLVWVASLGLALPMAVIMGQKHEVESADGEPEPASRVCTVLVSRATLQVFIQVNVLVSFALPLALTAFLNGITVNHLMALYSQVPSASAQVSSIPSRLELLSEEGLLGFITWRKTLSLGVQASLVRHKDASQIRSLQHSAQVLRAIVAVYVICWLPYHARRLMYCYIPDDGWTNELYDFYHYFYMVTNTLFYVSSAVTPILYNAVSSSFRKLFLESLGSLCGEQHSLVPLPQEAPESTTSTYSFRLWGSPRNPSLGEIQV

rNTS1 receptor = rNTS1 receptor (Rattus norvegicus, UniProt P20789); assay: Calcium mobilization assay for NTS1 receptor; assay type: cell-based; conditions: for activity at NTS1: NTS1 FLIPR calcium assay
rNTS2 receptor [2] = biological target: T1, rNTS2 receptor; assay: Competitive [125I]NT whole-cell binding assay, CHO-k1 cells overexpressing rNTS2

Chain of rNTS1 receptor (P20789 whole entry): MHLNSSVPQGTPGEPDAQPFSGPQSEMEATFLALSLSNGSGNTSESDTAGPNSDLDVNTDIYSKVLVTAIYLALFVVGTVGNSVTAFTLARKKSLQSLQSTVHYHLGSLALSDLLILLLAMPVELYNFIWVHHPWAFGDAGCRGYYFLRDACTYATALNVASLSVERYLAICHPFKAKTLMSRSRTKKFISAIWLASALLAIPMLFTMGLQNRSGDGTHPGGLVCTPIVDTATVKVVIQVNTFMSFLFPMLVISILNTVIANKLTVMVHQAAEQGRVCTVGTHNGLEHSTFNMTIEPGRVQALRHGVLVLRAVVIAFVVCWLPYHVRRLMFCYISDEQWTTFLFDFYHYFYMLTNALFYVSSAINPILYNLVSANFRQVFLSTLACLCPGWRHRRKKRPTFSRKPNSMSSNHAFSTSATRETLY

SMILES | NTS2 Emax (FLIPR assay) (rNTS2 receptor [1]) [% 5b] | activity at NTS1 (rNTS1 receptor) | Kb (rNTS1 receptor) [nM] | Ki (rNTS2 receptor [2]) [µM]
C[C@@H]1CN([C@H]2CC[C@](C#N)(c3ccc(F)cc3)CC2)CC[C@]1(C(=O)O)c1ccccc1 [Compound 6, levocabastine] | 16 | no activity at NTS1 |  | 
COc1cccc(OC)c1-c1cc(C(=O)NC2(C(=O)O)C3CC4CC(C3)CC2C4)nn1-c1ccc(C(=O)N(C)CCCN(C)C)cc1C(C)C (stereo not drawn) [Compound 5b] |  |  | 1.5 ± 0.6 | 
COc1cccc(OC)c1-c1cc(C(=O)NC2(C(=O)O)C3CC4CC(C3)CC2C4)nn1-c1ccnc2cc(Cl)ccc12 (stereo not drawn) [Compound 5a] | 100 |  | 4.7 ± 0.8 | 
COc1cccc(OC)c1-c1cc(C(=O)NC2C3CC4CC(C3)CC2C4)nn1-c1ccnc2cc(Cl)ccc12 (stereo not drawn) [Compound 13, 1-(7-Chloroquinolin-4-yl)-5-(2,6-dimethoxyphenyl)-N-tricyclo[3.3.1.13,7]dec-2-yl-1H-pyrazole-3-carboxamide] |  | inactive |  | > 11
COc1ccccc1-c1cc(C(=O)NC2(C(=O)O)CCCCC2)nn1-c1ccc(F)cc1 [Compound 7b, 1-({[1-(4-Fluorophenyl)-5-(2-methoxyphenyl)-1H-pyrazol-3-yl]carbonyl}amino)cyclohexanecarboxylic Acid] | 7±2 | neither calcium nor binding activity at NTS1 |  | 
